According to publication PMC11173529, “Structure–Activity Relationship Studies in a Series of Xanthine Inhibitors of SLACK Potassium Channels” (Molecules, 2024):

Biological target: T1, human G288S SLACK (Homo sapiens, UniProt Q5JUK3, G269S)
T1 construct: host or cells: CHO-K1
T1 sequence (Q5JUK3 1-1235 isoform Q5JUK3-3 G288S): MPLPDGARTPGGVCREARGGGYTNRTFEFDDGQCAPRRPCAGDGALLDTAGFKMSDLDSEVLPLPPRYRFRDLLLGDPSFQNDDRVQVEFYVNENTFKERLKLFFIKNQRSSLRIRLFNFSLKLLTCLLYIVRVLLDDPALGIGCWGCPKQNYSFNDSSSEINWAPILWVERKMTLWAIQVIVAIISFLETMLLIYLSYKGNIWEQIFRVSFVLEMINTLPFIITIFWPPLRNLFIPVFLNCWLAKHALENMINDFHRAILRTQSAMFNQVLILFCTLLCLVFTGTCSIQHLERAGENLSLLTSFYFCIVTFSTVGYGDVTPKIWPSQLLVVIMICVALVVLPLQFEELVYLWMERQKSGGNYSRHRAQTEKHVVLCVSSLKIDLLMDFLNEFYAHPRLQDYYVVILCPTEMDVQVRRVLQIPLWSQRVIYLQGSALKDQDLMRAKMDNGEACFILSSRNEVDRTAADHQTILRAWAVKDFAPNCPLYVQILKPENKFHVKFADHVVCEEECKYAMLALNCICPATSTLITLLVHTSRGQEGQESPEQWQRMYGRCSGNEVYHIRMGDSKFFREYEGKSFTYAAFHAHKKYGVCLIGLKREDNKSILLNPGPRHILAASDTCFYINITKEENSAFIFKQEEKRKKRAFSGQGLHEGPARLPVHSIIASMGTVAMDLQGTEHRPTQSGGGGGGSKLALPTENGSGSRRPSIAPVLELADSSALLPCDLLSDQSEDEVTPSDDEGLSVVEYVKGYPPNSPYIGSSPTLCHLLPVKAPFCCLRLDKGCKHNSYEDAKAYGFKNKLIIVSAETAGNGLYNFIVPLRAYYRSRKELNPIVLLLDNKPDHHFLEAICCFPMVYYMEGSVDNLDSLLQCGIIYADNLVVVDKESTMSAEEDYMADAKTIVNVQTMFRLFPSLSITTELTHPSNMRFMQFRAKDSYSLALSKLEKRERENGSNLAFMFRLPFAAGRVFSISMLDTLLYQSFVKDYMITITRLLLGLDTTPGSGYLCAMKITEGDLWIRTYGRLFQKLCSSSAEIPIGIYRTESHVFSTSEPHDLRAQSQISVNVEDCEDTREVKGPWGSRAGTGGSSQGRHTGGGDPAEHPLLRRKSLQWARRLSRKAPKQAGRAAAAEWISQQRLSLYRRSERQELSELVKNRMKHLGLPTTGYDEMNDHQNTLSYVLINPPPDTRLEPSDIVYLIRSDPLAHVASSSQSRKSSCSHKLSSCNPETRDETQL
Assay: Whole-cell APC in CHO cells stably expressing human G288S SLACK
Type: cell-based
Settings: for IC50: APC, CHO cells; for Imax: maximum inhibition at 30 µM standardized to VU0606170 (100%)
Excerpt: Development of a useful SLACK inhibitor in vivo tool will require potent activity at the corresponding mouse ortholog as studies in appropriate mouse models will be critical. Thus, we evaluated analogs 32 and 48 in our APC assay using CHO cells stably expressing mouse WT SLACK (Table 6). […] We were also eager to evaluate the same compounds with regard to their ability to inhibit clinically relevant GOF SLACK mutants. Both the C-terminus A934T mutant and transmembrane G288S mutant have been associated with clinical cases of EIMFS [3, 7].
Stably transfected monoclonal HEK293 cell lines expressing Slick, Maxi-K α1/β3, Maxi-K α1/β4, CaV3.2, GIRK 1/2, KV2.1, KV7.2, NaV1.7, and TASK-1 were generated as previously described. Stably transfected monoclonal HEK293 cell lines expressing hERG were generated as previously described. CHO-K1 cells expressing human Slack and disease-associated human Slack mutations, G288S and A934T, were generated by transfecting a PiggyBac TRE mammalian expression vector (VectorBuilder, Chicago, IL, USA) containing KCNT1. FuGENE 6 (Promega, Madison, WI, USA) transfection reagent and protocol, together with Opti-MEM (Thermo Fisher Scientific, Walkham, MA, USA), were utilized.
Automated patch-clamp recording was performed with a SyncroPatch 768 PE system (Nanion, Munich, Germany) as previously described. Whole-cell recordings were performed at room temperature. Cells were harvested by first washing with PBS without Mg^2+ or Ca^2+ (Gibco, Billings, MT, USA) to remove cell culture media, followed by dissociation with TryPLE (Gibco, Billings, MT, USA). Cells were then resuspended and diluted to 100,000 cells/mL in external solution. External solution contained 105 mM NaCl, 4 mM KCl, 1 mM MgCl2, 5 mM CaCl2, 10 mM HEPES, and 40 mM N-Methyl-D-glucamine chloride, titrated to pH of 7.4 and osmolarity of 300 mOsm/kg; internal solution contained 70 mM NaCl, 70 mM KF, 10 mM KCl, 5 mM EGTA, and 5 mM HEPES, titrated to a pH of 7.2 and osmolarity of 295 mOsm/kg.
The APC protocol was set as follows: Cells were held at a […] of −80 mV for 100 ms, then a ramp protocol was performed from −100 mV to 80 mV at 0.4 mV/ms, followed by holding the cell at −80 mV for another 100 ms, then steps were performed at −20 mV, 0 mV, +20 mV, +40 mV, and +60 mV for 100 ms of each step. Whole-cell currents were measured at 0 mV and normalized to current after external buffer addition. […] To obtain the concentration-response relationship graphs and IC50 values, we take the median value of the last 7 current amplitude values obtained for each set of data points collected for a given concentration at a particular step.

Structure (SMILES) | IC50 | Imax
COc1cccc(Cn2c(=O)c3c(nc(N(C)Cc4ccccc4)n3C)n(C)c2=O)c1 [Analog 32] | 650 nM | 100%
CN(Cc1cccc(F)c1)c1nc2c(c(=O)n(Cc3ccccc3)c(=O)n2C)n1C [Analog 48] | 750 nM | 100%
CCCCN(Cc1cccc(F)c1)c1nc2c(c(=O)n(Cc3cccc(OC)c3)c(=O)n2C)n1C [Analog 78] | 880 nM | 
COc1cccc(Cn2c(=O)c3c(nc(N(Cc4cccc(F)c4)CC4CC4)n3C)n(C)c2=O)c1 [Analog 79] | 1000 nM | 
CCCCN(Cc1ccc(F)cc1)c1nc2c(c(=O)n(Cc3cccc(OC)c3)c(=O)n2C)n1C [Analog 80] | 710 nM | 
COc1cccc(Cn2c(=O)c3c(nc(N(Cc4ccc(F)cc4)CC4CC4)n3C)n(C)c2=O)c1 [Analog 81] | 790 nM | 
